# From patent publication US20240091227A1, “Use Of 2-Phenyl-6-(1H-Imidazol-1-YL) Quinazoline For Treating Neurodegenerative Diseases, Preferably Alzheimer's Disease” (ROTTAPHARM BIOTECH S.R.L., priority 2019, published 2024)
# Tests used:
# [1] = test system: IL-1β; assay: IL-1β gene expression in IL-1β-stimulated U373 MG astrocytoma cells (RT-PCR); format: cell-based, human; settings: IL-1β 2 ng/ml
# Description: A model of astrocytes, the human glioblastoma astrocytoma cell line U373 MG (Uppsala), was used for these experiments. Adherent cells were grown in DMEM medium supplemented with 10% FBS at 37° C. with CO2. 72 hours after plating, cells were treated for 1 h with 2-phenyl-6-(1H-imidazol-1-yl)quinazoline (CR4056) (10 μM) prepared according to EP2066653 and then stimulated with the pro-inflammatory cytokine IL-1β (2 ng/mL) for further 6 and 24 h.
# At the end of incubation period, total RNA was obtained and retro-transcribed using the High-Capacity cDNA Reverse Transcription Kit (Thermo Fisher Scientific). The levels of expression of COX-2, IL-1β, IL-6 and TNFα were evaluated by RT-PCR analysis, performed using the Applied Biosystems 7500 Fast Real-Time PCR System using specific TaqMan assays and, as an endogenous control, the 18S Pre-Developed TaqMan® Assay (Thermo Fisher Scientific). The data analysis, with normalisation on 18S amplified values, was according to Thermo Fisher Scientific specific instructions for gene expression relative quantification. All individual data were the result of at least three different measurements for each sample.
# Percentage of gene expression inhibition observed in U373 cells stimulated with IL-1β 2 ng/ml and exposed to 10 μM CR4056 for the indicated time.
# [2] = test system: rats; assay: Rotarod and open field tests (motor coordination and locomotor activity); format: in vivo, rat; settings: suprapharmacological concentrations
# Text: These findings indicate that CR4056 could be a safe drug for treating neurodegenerative diseases, and, in particular, Alzheimer disease.
# [3] = test system: Rats treated with scopolamine; assay: Morris water maze in scopolamine-induced memory impairment; format: in vivo, rat; settings: scopolamine 1 mg/kg sc, CR4056 20 mg/kg os, mean over four days
# Description: FIG. 4 reports the results of the Morris Water Maze test in the model of scopolamine-induced memory loss. Rats treated with scopolamine (Sco, 1 mg/kg) or physiological solution (Sal) received CR4056 20 mg/kg/die or its vehicle (MC). Data represented the mean time spent to reach the hidden platform over four days. Two way ANOVA. Tukey Comparison test. ** P<0.01.
# The Morris water maze test was used to evaluate cognitive function distinct in two phases: first, the acquisition and spatial localization of a hidden platform and, subsequently, the processing, consolidating, retaining and then retrieving the acquired information to successfully locate the platform to escape the water.
# Place navigation required the rats to learn to swim from any starting position to the escape platform, thereby acquiring a long-term memory of the platform's spatial location. Animals were placed into various quadrants of the pool and the time elapsed and the distance traversed to reach the hidden platform was recorded. Various objects were placed in the testing room so that the animals used these visual cues as a means of navigating in the Maze. After repeated entry into the Maze, the animals became more and more efficient at locating the platform, thus escaping the water by learning the location of the platform relative to the distal visual cues. […]
# [4] = test system: Mice treated with scopolamine; assay: Novel object recognition in scopolamine-induced memory impairment; format: in vivo, mouse; settings: scopolamine 1 mg/kg ip, CR4056 6 and 20 mg/kg os
# Description: FIG. 5 reports the results of Novel Object recognition test in the model of scopolamine-induced memory loss. Data presented as % of time spent on exploration of new and old object in testing phase. *p<0.05; **P<0.01; t student test (n=6).
# The novel object recognition test was used to evaluate cognitive function based on the ability of mice to recognize various object proposed in the arena test. During the training phase a pair of identical objects were placed in the cage test. 24 hours after the first phase, during the testing phase one of the two object was replaced by a new different one. Time of exploration of each object was recorded in training and testing phase. The typical approach of mice was a similar exploration of the objects in training phase and a preference for the new object during the testing phase. The administration of substances that can worsen cognitive performance (i.e., scopolamine) caused the deletion of reminder of the old object and an equal exploration of 2 different objects. Scopolamine 1 mg/kg was administered ip 20 minutes before the training, whereas CR4056 6 and 20 mg/kg was administered os 40 minutes before the training.
smiles,measurement,setting,value
"c1ccc(-c2ncc3cc(-n4ccnc4)ccc3n2)cc1 [CR4056, 2-phenyl-6-(1H-imidazol-1-yl)quinazoline]","Percentage of gene expression inhibition, IL-1β","[1]; 10 μM CR4056, 6 h",20%
same,"Percentage of gene expression inhibition, IL-1β","[1]; 10 μM CR4056, 24 h",29%
same,Impairment of motor coordination and locomotor activity (rotarod and open field tests),[2],nor impairment of motor coordination and locomotor activity
same,"Time to reach the hidden platform, Morris water maze",[3],significantly reduced the time taken to get to the platform
same,"Time of exploration of the new object in testing phase, novel object recognition",[4],increased the time of exploration of the new object
